19 compounds from patent US6538022B1, “Compounds for deactivating phospholamban function on Ca-ATPase (phopholamban inhibitors)” (Orion Corporation, priority 1997, dated 2003) can be followed below.

For orientation: EC50 means the concentration at which the effect is half-maximal.

One experiment deals with guinea-pig heart. Kind of experiment: Left ventricular systolic pressure in isolated Langendorff-perfused heart. As to conditions: Cavia porcellus; for Emax at 30 µM / Emax at 10 µM: read-out: maximum effect (% change from baseline) on left ventricular systolic pressure; for EC50: concentration range 0.3-30 μM. The text has this: Experiment 2. The effects on the left ventricular pressure derivatives
Guinea-pigs of either sex weighing 300-400 g were used in the study. After the guinea-pig was sacrificed by a blow on the skull and decapitated the heart was rapidly excised. The heart was then rinsed in cold oxygenated perfusion buffer. A cannula was inserted into the aorta and secured with a ligature. Retrograde perfusion began as soon as the heart was placed in a thermostatically controlled moist chamber of the Langendorff apparatus. Modified Tyrode solution (37° C.), equilibrated in a thermostatically controlled bulb oxygenator with carbogen (95% O2 and 5% CO2) was used as a perfusion buffer. The composition of the Tyrode solution was (in mM): NaCl 135; MgCl2×6H2O 1; KCl 5; CaCl2×2H2O 2; NaHCO3 15; Na2HPO4×2H2O 1; glucose 10; pH 7.3-7.4. The experiments were carried out under constant pressure condition (50 mmHg). After a short prestabilization (10 min) a latex balloon (size 4) was carefully placed into the left ventricle through the left pulmonary vein and the left atrium. The latex balloon was attached to a stainless-steel cannula coupled with a pressure transducer. The latex balloon, the cannula and the chamber of the pressure transducer were filled with ethylene glycol/water (1:1) mixture avoiding any air-bubble. The isovolumetric left ventricular pressure was recorded through the pressure transducer. At the beginning of the experiment, the volume of the balloon was adjusted to obtain a diastolic pressure of approximately 5 mmHg. Before starting the experiment, the heart was allowed to stabilise further for 30-50 min with vehicle (0.1% DMSO) in the perfusion buffer.
After 15 min baseline recording various concentrations of the test compound were added to the perfusion buffer at 15 min intervals. The concentration range of 0.3-30 μM was tested. The vehicle concentration (0.1% DMSO) was kept constant throughout the experiment.

Another experiment relates to phospholamban. Briefly: Ca2+ uptake into SR vesicles prepared from cardiac tissue (fluo-3). As to conditions: 0.1 μM free calcium. It is filed as biochemical, guinea pig. The text has this:
(§1) Experiment 1. Effect on calcium uptake into the SR vesicles prepared from cardiac and fast skeletal muscle
(§2) Since phospholamban represses both the rates of relaxation and contraction in the mammalian heart through its inhibitory effects on the cardiac SR Ca^2+-ATPase, a compound relieving these effects is potentially useful in the treatment of heart failure.
(§3) Guinea pigs (10-12) were decapited. Their hearts or the psoas muscles were excised, washed in ice-cold 0.9% NaCl and cut into pieces in a buffer containing 20 mM Tris-maleate, 0.3 M sucrose, pH 7.0. Thereafter tissue pieces were homogenized with Polytron and further with Potter (10 strokes). The homogenate was centrifugated at 1000 g for 15 min at 4° C. The supernatant was collected and the pellet was resuspended into 5 ml of the buffer (20 mM Tris-maleate, 0.3 M sucrose, pH 7.0) and recentrifugated at 1000 g for 10 min at 4° C. The obtained supernatant was combined with the earlier collected supernatant and centrifugated once again at 10000 g for 20 min at 4° C. The final supernatant was filtered into a bottle equipped with a magnetic stirrer. KCl was added to the filtered supernatant to achieve the final concentration of 0.6 M (at 4° C.). The obtained solution was centrifugated at 100 000 g for 60 min at 4° C. The pellet was suspended in 5 ml of the buffer containing 20 mM Tris-maleate, 0.3 M sucrose, pH 7.0 and centrifugated at 100 000 g for 60 min at 4° C. The obtained pellet was suspended in 5 ml of buffer containing 20 mM Tris-maleate, 0.3 M sucrose, 0.1 M KCl, pH 7.0 and stored at −80° C. until use. The protein concentration was also measured in order to standardise the separately prepared vesicle preparations.
(§4) In the calcium uptake assay, the fluorescent indicator, fluo-3 was used to detect the decrease of the extravesicular Ca^2+-concentration, when the SR Ca^2+ATPase was transferring Ca^2+ from the extravesicular space into the SR-vesicles.
(§5) The SR-vesicles obtained above (50 μg protein/ml) were pre-incubated with or without the test compound at 37° C. for 5 min in the assay buffer containing 40 mM imidazole, 95 mM KCl, 5 mM NaN3, 5 mM MgCl2, 0.5 mM EGTA, 5 mM potassium oxalate, 2 μM ruthenium red, 5 μM fluo-3, pH 7.0. The free calcium was adjusted to 0.1 μM or to 0.04 μM by CaCl2. The reaction was initiated by adding ATP (5 mM). The final reaction volume was 1.5 ml. The fluorescence of reaction mixture was measured for 3 min by using the excitation and emission wavelengths of 510 nm and 530 nm, respectively.

A further experiment concerns SR Ca^2+-ATPase. Briefly: Ca2+ uptake into SR vesicles prepared from fast skeletal muscle (psoas m.), which lack phospholamban (fluo-3). The experiment is classed as biochemical, guinea pig. As to conditions: 0.04 μM free calcium.
Description: as §1, §2, §3, §4, §5

For the next experiment, the target named is T1, PLB (Homo sapiens, UniProt P26678).
T1 sequence (P26678 1-52): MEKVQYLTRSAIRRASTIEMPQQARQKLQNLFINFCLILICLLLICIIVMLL
Briefly: Peptide screen for binding to PLB. The text has this:
In order to find a lead molecule which would interact with PLB a series of peptides were screened. […] It was concluded that the cyclic peptide of formula (pI) binds to unphosphorylated PLB and prevents the inhibition exerted by PLB on SERCA—2 thus acting as a PLB deactivator. The cyclic peptide (pI) has the structure: [drawing 1]

Bridges are numbered along the chain shown (N, C = ends). Where no end group is shown, it is not given here.

Consider `Cc1c(Cc2ccccc2)c(=O)n(C)c2cc(OCc3nnn[nH]3)cc(OCc3nn[nH]n3)c12` [Example 9d, 5,7-Bis[(1H-tetrazol-5-yl)methoxy]-3-benzyl-1,4-dimethyl-2(1H)-quinolinone], for which, in the experiment on guinea-pig heart, the Emax at 30 µM stood at 50% and the response was half-maximal at 5 µM (EC50).

In the case of `Cc1c(Cc2ccc(Cl)cc2)c(=O)oc2cc(OCc3nn[nH]n3)cc(OCc3nn[nH]n3)c12` [Example 14c, 5,7-Bis[(1H-tetrazol-5-yl)methoxy]-3-(4-chlorobenzyl)-4-methyl-2H-1-benzopyran-2-one], the “The stimulation (%) of Ca^2+ uptake, A (ventricular myocardium vesicles)” value with phospholamban (10 μM compound) came to 18%. The Emax at 10 µM in the experiment with guinea-pig heart amounted to 25%.

On to `Cc1c(Cc2ccccc2)c(=O)oc2cc(OC(C)c3nn[nH]n3)cc(OC(C)c3nn[nH]n3)c12` (centres unmarked) [Example 11b, 3-Benzyl-5,7-bis[1-(1H-tetrazol-5-yl)ethoxy]4-methyl-2 H-1-benzopyran-2-one], for which, in the experiment on phospholamban (100 μM compound), the “The stimulation (%) of Ca^2+ uptake, A (ventricular myocardium vesicles)” value was 28%.

For `Cc1c(Cc2ccccc2F)c(=O)n(Cc2ccccc2)c2cc(OCc3nnn[nH]3)cc(OCc3nnn[nH]3)c12` [Example 19e], in the experiment on guinea-pig heart, the Emax at 30 µM amounted to 39% and the EC50 is 6 µM.

For the compound `Cc1c(Cc2ccccc2)c(=O)n(Cc2ccccc2)c2cc(OCC(N)=O)cc(OCC(N)=O)c12` [Example 21, 5,7-Bis(aminocarbonylmethoxy)-1,3-dibenzyl-4-methyl-2(1H)-quinolinone], the “The stimulation (%) of Ca^2+ uptake, A (ventricular myocardium vesicles)” value in the experiment on phospholamban (100 μM compound) was 11%.

With `Cc1c(C2CCCC2)c(=O)oc2cc(OCc3nn[nH]n3)cc(OCc3nn[nH]n3)c12` [Example 16c, 5,7-Bis[(1H-tetrazol-5-yl)methoxy]-3-cyclopentyl-4-methyl-2H-1-benzopyran-2-one], in the experiment with guinea-pig heart, the Emax at 30 µM amounted to 57% and the response was half-maximal at 10 µM (EC50).

Consider `Cc1c(Cc2ccccc2)c(=O)n(Cc2ccccc2)c2cc(OCC(=O)NO)cc(OCC(=O)NO)c12` [Example 23, 5,7-Bis(hydroxyaminocarbonylmethoxy)-1,3-dibenzyl-4-methyl-2(1H)-quinolinone], for which, in the experiment on phospholamban (5 μM compound), the “The stimulation (%) of Ca^2+ uptake, A (ventricular myocardium vesicles)” value is listed as 20%.

As to `Cc1c(Cc2ccccc2)c(=O)n(Cc2ccccc2)c2cc(OCC(=O)O)cc(OCC(=O)O)c12` [Example 12, 5,7-Bis(carboxymethoxy)-1,3-dibenzyl-4-methyl-2(1H)-quinolinone], the “The stimulation (%) of Ca^2+ uptake, A (ventricular myocardium vesicles)” value in the experiment with phospholamban (100 μM compound) stood at 32%. The Emax at 10 µM with guinea-pig heart is 22%.

For the compound `Cc1c(CCc2ccccc2)c(=O)oc2cc(OCc3nn[nH]n3)cc(OCc3nn[nH]n3)c12` [Example 7c, 5,7-Bis[(1H-tetrazol-5-yl)methoxy]-4-methyl-3-(2-phenylethyl)-2H-1benzopyran-2-one], in the experiment with phospholamban (100 μM compound), the “The stimulation (%) of Ca^2+ uptake, A (ventricular myocardium vesicles)” value is 5%. Besides, the “The stimulation (%) of Ca^2+ uptake, B (fast skeletal muscle vesicles)” value (“The stimulation (%) of Ca^2+ uptake, B” below) with SR Ca^2+-ATPase (100 μM compound) is −17%. Further, in the experiment with guinea-pig heart, the Emax at 10 µM was 29% and the midpoint of the response, the EC50, lay at 2.5 µM.

For `Cc1c(Cc2ccc([N+](=O)[O-])cc2)c(=O)oc2cc(OCc3nn[nH]n3)cc(OCc3nn[nH]n3)c12` [Example 15c, 5,7-Bis[(1H-tetrazol-5-yl)methoxy]-3-(4-nitrobenzyl)-4-methyl-2H-1-benzopyran-2-one], in the experiment on guinea-pig heart, the Emax at 10 µM came to 37% and a half-maximal effect (EC50) was put at 3 µM.

As to `Cc1c(Cc2ccccc2)c(=O)n(Cc2ccccc2)c2cc(OCc3nnn[nH]3)cc(OCc3nn[nH]n3)c12` [Example 8g, 5,7-Bis[(1H-tetrazol-5-yl)methoxy]-1,3-dibenzyl-4-methyl-2(1H)-quinolinone], the “The stimulation (%) of Ca^2+ uptake, A (ventricular myocardium vesicles)” value with phospholamban (10 μM compound) was determined as 18%. Moreover, in the experiment on SR Ca^2+-ATPase (10 μM compound), the “The stimulation (%) of Ca^2+ uptake, B” value is 0%. In addition, in the experiment with guinea-pig heart, the Emax at 10 µM amounted to 64% and the EC50 came to 2 µM.

On to “cP226: cyclic peptide of formula (pI) wherein X is Tyr; linear CYWELEWLPCA cyclized by intramolecular disulphide bridge; PLB deactivator (disulfide 1-10 (inferred))”, for which, in the experiment with PLB, the “binding to PLB” value is recorded as “binds to the ligand binding site of phospholamban”.

As to `O=c1oc2cc(OCc3nn[nH]n3)cc(OCc3nn[nH]n3)c2c2c1C(c1ccccc1)CCC2` (centres unmarked) [Example 2c, 7,8,9,10-Tetrahydro-1,3-bis[(1H-tetrazol-5-yl)methoxy]-7-phenyl-6H-dibenzo[b,d]pyran-6-one], the “The stimulation (%) of Ca^2+ uptake, A (ventricular myocardium vesicles)” value with phospholamban (100 μM compound) came to 26%. In addition, the “The stimulation (%) of Ca^2+ uptake, B” value with SR Ca^2+-ATPase (100 μM compound) is −1%.

As to `Cc1c(Cc2ccccc2)c(=O)oc2cc(OCc3nn[nH]n3)cc(OCc3nn[nH]n3)c12` [Example 1c, 3-Benzyl-5,7-bis[(1H-tetrazol-5-yl)methoxy]-4-methyl-2H-1-benzopyran-2-one], in the experiment on guinea-pig heart, the Emax at 30 µM was 52% and a half-maximal effect (EC50) was put at 9 µM.

For `Cc1c(Cc2ccccc2)c(=O)oc2cc(OCc3noc(=O)[nH]3)cc(OCc3noc(=O)[nH]3)c12` [Example 3c, 3-Benzyl-5,7-bis[(2,5-dihydro-5-oxo-4H-1,2,4-oxadiazol-3-yl)-methoxy]-4-methyl-2H-1-benzopyran-2-one], the “The stimulation (%) of Ca^2+ uptake, A (ventricular myocardium vesicles)” value with phospholamban (20 μM compound) turned out to be 51%. Besides, in the experiment on SR Ca^2+-ATPase (20 μM compound), the “The stimulation (%) of Ca^2+ uptake, B” value was determined as 0%. For the same compound, in the experiment on guinea-pig heart, the Emax at 10 µM was determined as 63% and the EC50 amounted to 4 µM.

For `Cc1c(Cc2ccccc2)c(=O)n(Cc2ccc(F)cc2)c2cc(OCc3nn[nH]n3)cc(OCc3nn[nH]n3)c12` [Example 13d, 3-Benzyl-5,7-Bis[(1H-tetrazol-5-yl)methoxy]-1-(4-fluorobenzyl)-4-methyl-2(1H)-quinolinone], the “The stimulation (%) of Ca^2+ uptake, A (ventricular myocardium vesicles)” value in the experiment with phospholamban (50 μM compound) is on record as 23%. Moreover, in the experiment with guinea-pig heart, the Emax at 30 µM stood at 48% and the half-maximal effective concentration (EC50) was 10 µM.

Regarding `Cc1cc(=O)n(Cc2ccccc2)c2cc(OCc3nnn[nH]3)cc(OCc3nnn[nH]3)c12` [Example 18e, 1-Benzyl-5,7-bis-[(1H-tetrazol-5-yl)methoxy]-4-methyl-2(1H)-quinolinone], in the experiment with phospholamban (100 μM compound), the “The stimulation (%) of Ca^2+ uptake, A (ventricular myocardium vesicles)” value was 13%. In the experiment with guinea-pig heart, the Emax at 30 µM stood at 35% and a half-maximal response (EC50) required 10 µM.

As to `O=c1oc2cc(OCc3nn[nH]n3)cc(OCc3nn[nH]n3)c2c2c1CC(c1ccccc1)CC2` (centres unmarked) [Example 6c, 7,8,9,10-Tetrahydro-1,3-bis[(1H-tetrazol-5-yl)methoxy]-8-phenyl-6H-dibenzo[b,d]pyran-6-one], in the experiment on guinea-pig heart, the Emax at 10 µM was 25% and the midpoint of the response, the EC50, lay at 0.5 µM.

`O=c1cc(-c2ccccc2)c2c(OCc3nn[nH]n3)cc(OCc3nn[nH]n3)cc2o1` [Example 5c, 5,7-Bis[(1H-tetrazol-5-yl)methoxy]-4-phenyl-2H-1-benzopyran-2-one]: the Emax at 30 µM in the experiment on guinea-pig heart stood at 14%.
